This is an account of results in the supplement of paper PMC11003180.

Holding throughout (experiment): drug sensitivity score (DSS) from 5-dose viability curve (DSS (area-based score, 0 = no response)); higher = more sensitive (stronger viability inhibition); extreme values may be limits of the assay
The subject of assay [1] is MDCK wild-type - doxycycline. Particulars: doxycycline: none; 72 h. The method, boiled down: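 Parental MDCK cells, grown without doxycycline, were seeded at 2000 cells/well into 384-well plates pre-spotted with an oncology library of 528 drugs at five doses (1-10,000 nM). After 72 h at 37 °C, CellTiter-Glo luminescence was read. Viability was scaled per plate between vehicle and positive controls, and drug sensitivity scores were derived from dose-response curve fits in the Breeze pipeline.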

For assay [2], the system named is MDCK p60AmotL2-inducible + doxycycline (p60AmotL2 expressing). Particulars: doxycycline: 10 ng/mL; 72 h. The essentials:
(§1)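 Two MDCK lines, parental and doxycycline-inducible, received doxycycline at 10 ng/mL in the medium before being plated at 2000 cells/well onto a pre-spotted 384-well oncology library of 528 drugs at five doses (1-10,000 nM). Incubation lasted 72 h at 37 °C. Viability was read by CellTiter-Glo luminescence, scaled per plate between vehicle and positive controls, and converted to drug sensitivity scores through Breeze curve fitting.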

In assay [3] the test system is MDCK wild-type + doxycycline. Conditions: doxycycline: 10 ng/mL; 72 h. The essentials:
as §1

In the case of `C[C@H]1C[C@@H]2[C@H]([C@@H](O)C[C@@]3(C)[C@H]2CC[C@]3(O)C(=O)CO)[C@@]2(C)C=CC(=O)C=C12` [Methylprednisolone], the drug sensitivity score in assay [1], in assay [2] and in assay [3] was 0 each time.

With `CO[C@@H]1[C@H](N(C)C(=O)c2ccccc2)C[C@H]2O[C@]1(C)n1c3ccccc3c3c4c(c5c6ccccc6n2c5c31)C(=O)NC4` [Midostaurin], the drug sensitivity score in assay [1] was determined as 13.2; in assay [2], 13.9; in assay [3] it was 11.5.

For the compound `CNC(=O)c1nn(C)c2c1C(C)(C)Cc1cnc(Nc3ccc(N4CCN(C)CC4)cc3)nc1-2` [Milciclib], the results for the drug sensitivity score in assay [1], in assay [2] and in assay [3] were 12.4, 13.2 and 14.5, respectively.

`CCCCCCCCCCCCCCCCOP(=O)([O-])OCC[N+](C)(C)C` [Miltefosine]: the drug sensitivity score in assay [1] worked out at 4.9; in assay [2], 5.3; in assay [3], 5.2.

As for `CO[C@@]12[C@H](COC(N)=O)C3=C(C(=O)C(C)=C(N)C3=O)N1C[C@@H]1N[C@@H]12` [Mitomycin C], the figures for the drug sensitivity score in assay [1], in assay [2] and in assay [3] were 1.2, 0 and 0, respectively.

On to `Clc1ccc(C(c2ccccc2Cl)C(Cl)Cl)cc1` (stereo unspecified) [Mitotane], for which the drug sensitivity score in assay [1], in assay [2] and in assay [3] was 0 each time.

Regarding `O=C1c2c(O)ccc(O)c2C(=O)c2c(NCCNCCO)ccc(NCCNCCO)c21` [Mitoxantrone], the drug sensitivity score in assay [1] was found to be 7.1; in assay [2], 15.5; in assay [3] it was 8.9.

For the compound `CCS(=O)(=O)Nc1ccc(Oc2ccc(F)cc2F)c(-c2cn(C)c(=O)c3[nH]ccc23)c1` [Mivebresib], the drug sensitivity score in assay [1] worked out at 18.7; in assay [2] it was 29.9; in assay [3], 23.8.

With `Nc1ccccc1NC(=O)c1ccc(CNc2nccc(-c3cccnc3)n2)cc1` [Mocetinostat], the drug sensitivity score is 8.1 in assay [1], 6.2 in assay [2] and 8.4 in assay [3].

With `CCNC(=O)C[C@@H]1N=C(c2ccc(Cl)cc2)c2cc(OC)ccc2-n2c(C)nnc21` [Molibresib], the results for the drug sensitivity score in assay [1], in assay [2] and in assay [3] were 0.9, 9.5 and 2.9, respectively.

Consider `N#CCNC(=O)c1ccc(-c2ccnc(Nc3ccc(N4CCOCC4)cc3)n2)cc1` [Momelotinib], for which the drug sensitivity score was 3.7 in assay [1], 3.3 in assay [2] and 2.7 in assay [3].

In the case of `CC1(C)CNc2cc(NC(=O)c3cccnc3NCc3ccncc3)ccc21` [Motesanib], the drug sensitivity score in assay [1], in assay [2] and in assay [3] was 0 in each case.

Turning to `CCCN(CCC)C(=O)C1=Cc2ccc(-c3ccc(C(=O)N4CCCC4)cc3)cc2N=C(N)C1` [Motolimod], the drug sensitivity score in assay [1] worked out at 0; in assay [2], 2.5; in assay [3], 0.8.

`FC(F)(F)c1ccc(/C=C/c2nc(COc3ccc(CCCCn4ccnn4)cc3)co2)cc1` [Mubritinib]: the drug sensitivity score in assay [1], in assay [2] and in assay [3] was 0 each time.

With `Cc1cc(OCc2nnc(SC3CCCC3)n2-c2cccnc2)ccc1-c1ccc(S(C)(=O)=O)cc1` [NMS-873], the drug sensitivity score in assay [1] amounted to 12.8; in assay [2], 14.7; in assay [3], 13.5.

On to `COc1ccc(-c2ccc3ncc4c(c3c2)n(-c2ccc(N3CCNCC3)c(C(F)(F)F)c2)c(=O)n4C)cn1` [NVP-BGT226], for which the drug sensitivity score worked out at 11.8 in assay [1], 18.9 in assay [2] and 13.5 in assay [3].

As to `Cc1ccc(C(=O)Nc2cccc(C(F)(F)F)c2)cc1Nc1nc(-c2cccnc2)nc2c1cnn2C` [NVP-BHG712], the drug sensitivity score in assay [1] is 4.8; in assay [2], 0; in assay [3] it was 0.

Regarding `COc1cc2c(cc1OC(C)C)[C@H](c1ccc(Cl)cc1)N(c1ccc(N(C)C[C@H]3CC[C@H](N4CCN(C)C(=O)C4)CC3)cc1)C(=O)C2` [NVP-CGM097], the drug sensitivity score in assay [1] came to 5.4; in assay [2] it was 7.6; in assay [3], 5.3.

As for `CN[C@@H](C)C(=O)N[C@H](C(=O)N1CCC[C@H]1c1nc(C(=O)c2ccc(F)cc2)cs1)C1CCCCC1` [NVP-LCL161], the drug sensitivity score in assay [1] was 0; in assay [2], 0.5; in assay [3], 3.1.

In the case of `Cn1c(Nc2ccc(C(F)(F)F)cc2)nc2cc(Oc3ccnc(-c4ncc(C(F)(F)F)[nH]4)c3)ccc21` [NVP-RAF265], the drug sensitivity score in assay [1], in assay [2] and in assay [3] was 0 each time.

On to `CC(=O)c1cc2c(o1)C(=O)c1ccccc1C2=O` [Napabucasin], for which the drug sensitivity score in assay [1] is 18.3; in assay [2], 18.1; in assay [3], 18.5.

On to `CC1(C)CCC(c2ccc(Cl)cc2)=C(CN2CCN(c3ccc(C(=O)NS(=O)(=O)c4ccc(N[C@H](CCN5CCOCC5)CSc5ccccc5)c(S(=O)(=O)C(F)(F)F)c4)cc3)CC2)C1` [Navitoclax], for which the drug sensitivity score turned out to be 0.8 in assay [1], 0 in assay [2] and 0.9 in assay [3].

As to `CN1C(=O)N[C@H](Cc2c[nH]c3c(Cl)cccc23)C1=O` [Necrostatin 2], the drug sensitivity score in assay [1], in assay [2] and in assay [3] was 0 each time.

With `O=c1ncn2nc(Sc3ccc(F)cc3F)ccc2c1-c1c(Cl)cccc1Cl` [Neflamapimod], the drug sensitivity score in assay [1], in assay [2] and in assay [3] was 0 in each case.

In the case of `COc1nc(N)nc2c1ncn2[C@@H]1O[C@H](CO)[C@@H](O)[C@@H]1O` [Nelarabine], the drug sensitivity score in assay [1], in assay [2] and in assay [3] was 0 in each case.

With `CCOc1cc2ncc(C#N)c(Nc3ccc(OCc4ccccn4)c(Cl)c3)c2cc1NC(=O)/C=C/CN(C)C` [Neratinib], the results for the drug sensitivity score in assay [1], in assay [2] and in assay [3] were 5.1, 16.8 and 7.5, respectively.

With `Cc1cn(-c2cc(NC(=O)c3ccc(C)c(Nc4nccc(-c5cccnc5)n4)c3)cc(C(F)(F)F)c2)cn1` [Nilotinib], the drug sensitivity score in assay [1], in assay [2] and in assay [3] was 0 throughout.

As for `CC1(C)NC(=O)N(c2ccc([N+](=O)[O-])c(C(F)(F)F)c2)C1=O` [Nilutamide], the drug sensitivity score in assay [1], in assay [2] and in assay [3] was 0 in each case.

For the compound `COC(=O)c1ccc2c(c1)NC(=O)/C2=C(\Nc1ccc(N(C)C(=O)CN2CCN(C)CC2)cc1)c1ccccc1` [Nintedanib], the values for the drug sensitivity score in assay [1], in assay [2] and in assay [3] were 0.3, 8.3 and 1.3, respectively.

For `NC(=O)c1cccc2cn(-c3ccc([C@@H]4CCCNC4)cc3)nc12` [Niraparib], the drug sensitivity score in assay [1] is 0.7; in assay [2] it was 2.1; in assay [3], 2.3.

With `CC(O)c1cc(C(=O)N[C@@H](C)Cn2ccc(-c3ccc(C#N)c(Cl)c3)n2)n[nH]1` (stereo partly specified) [ODM-201], the drug sensitivity score in assay [1], in assay [2] and in assay [3] was 0 in each case.

On to `CC(=O)c1cnc2ccc(-c3cc(Cl)c(O)c(Cl)c3)nc2c1N[C@H]1CC[C@H](CN(C)C)CC1` [OTS167], for which the drug sensitivity score in assay [1] was found to be 17.2; in assay [2] it was 18.8; in assay [3], 19.4.

Turning to `O=C(c1cc(Cc2n[nH]c(=O)c3ccccc23)ccc1F)N1CCN(C(=O)C2CC2)CC1` [Olaparib], the drug sensitivity score in assay [1] was 0; in assay [2], 0.2; in assay [3] it was 0.

Take `C=CC(=O)Nc1cccc(Oc2nc(Nc3ccc(N4CCN(C)CC4)cc3)nc3ccsc23)c1` [Olmutinib]: the drug sensitivity score in assay [1] was 0; in assay [2], 1.5; in assay [3], 0.

Consider `COC(=O)C[C@](O)(CCCC(C)(C)O)C(=O)O[C@@H]1C(OC)=C[C@]23CCCN2CCc2cc4c(cc2[C@H]13)OCO4` [Omacetaxine], for which the drug sensitivity score in assay [1] turned out to be 33.5; in assay [2], 33.6; in assay [3], 32.4.

Consider `CC1(C)CC[C@]2(NC(=O)C(C)(F)F)CC[C@]3(C)[C@H](C(=O)C=C4[C@@]5(C)C=C(C#N)C(=O)C(C)(C)[C@@H]5CC[C@]43C)[C@@H]2C1` [Omaveloxolone], for which the drug sensitivity score in assay [1] came out at 17; in assay [2], 16.7; in assay [3], 16.3.

On to `COc1ncc(-c2ccc3nccc(-c4ccnnc4)c3c2)cc1NS(=O)(=O)c1ccc(F)cc1F` [Omipalisib], for which the values for the drug sensitivity score in assay [1], in assay [2] and in assay [3] were 14.5, 20.2 and 14.2, respectively.
